Results from the NIST ThermoML archive (doi:10.1007/s10765-006-0095-5).

Columns and labels:
[1] = xn = mol fraction of the nth substance listed; details: 101 kPa, Liquid
[2] = refractive index (Na D-line) (dimensionless); xn = mol fraction of the nth substance listed; details: 101 kPa, Liquid

CCCCN(CCCC)CCCC [tributylamine] + c1ccccc1
Details	mass density, [1] [kg/m3]	refractive index, [2]
278.15 K, x2 = 0.0702	790.1	1.4425
278.15 K, x2 = 0.1162	791.1	1.4495
278.15 K, x2 = 0.1687	792.5	1.4566
278.15 K, x2 = 0.2383	794.9	1.4636
278.15 K, x2 = 0.3091	797.7	1.4707
278.15 K, x2 = 0.4032	802.2	1.4779
278.15 K, x2 = 0.5043	808.5	1.485
278.15 K, x2 = 0.6492	821.3	1.4922
278.15 K, x2 = 0.8251	846.8	1.4994
283.15 K, x2 = 0.0702	786.7	1.4414
283.15 K, x2 = 0.1162	787.8	1.4485
283.15 K, x2 = 0.1687	789.3	1.4557
283.15 K, x2 = 0.2383	791.8	1.4628
283.15 K, x2 = 0.3091	794.6	1.47
283.15 K, x2 = 0.4032	799.2	1.4771
283.15 K, x2 = 0.5043	805.6	1.4842
283.15 K, x2 = 0.6492	818.5	1.4914
283.15 K, x2 = 0.8251	844.1	1.4985
288.15 K, x2 = 0.0702	783.2	1.4406
288.15 K, x2 = 0.1162	784.4	1.448
288.15 K, x2 = 0.1687	786	1.4551
288.15 K, x2 = 0.2383	788.5	1.4621
288.15 K, x2 = 0.3091	791.3	1.4692
288.15 K, x2 = 0.4032	795.9	1.4763
288.15 K, x2 = 0.5043	802.3	1.4834
288.15 K, x2 = 0.6492	815.2	1.4905
288.15 K, x2 = 0.8251	840.8	1.4976
293.15 K, x2 = 0.0702	779.9	1.4394
293.15 K, x2 = 0.1162	781.1	1.4466
293.15 K, x2 = 0.1687	782.7	1.4538
293.15 K, x2 = 0.2383	785.3	1.4609
293.15 K, x2 = 0.3091	788.1	1.4681
293.15 K, x2 = 0.4032	792.7	1.4752
293.15 K, x2 = 0.5043	799	1.4824
293.15 K, x2 = 0.6492	811.8	1.4896
293.15 K, x2 = 0.8251	837.1	1.4967
298.15 K, x2 = 0	774.3	–
298.15 K, x2 = 0.0702	775.6	1.4385
298.15 K, x2 = 0.1162	776.9	1.4456
298.15 K, x2 = 0.1687	778.5	1.4527
298.15 K, x2 = 0.2383	781	1.4602
298.15 K, x2 = 0.3091	783.8	1.4671
298.15 K, x2 = 0.4032	788.3	1.4742
298.15 K, x2 = 0.5043	794.5	1.4816
298.15 K, x2 = 0.6492	807	1.4881
298.15 K, x2 = 0.8251	831.6	1.4951
303.15 K, x2 = 0	770.8	–
303.15 K, x2 = 0.0702	772.5	1.4383
303.15 K, x2 = 0.1162	773.8	1.4454
303.15 K, x2 = 0.1687	775.4	1.4524
303.15 K, x2 = 0.2383	777.9	1.46
303.15 K, x2 = 0.3091	780.8	1.4667
303.15 K, x2 = 0.4032	785.4	1.474
303.15 K, x2 = 0.5043	791.6	1.4812
303.15 K, x2 = 0.6492	804.3	1.4876
303.15 K, x2 = 0.8251	829	1.4946
308.15 K, x2 = 0	767.2	–
308.15 K, x2 = 0.0702	769.1	1.4374
308.15 K, x2 = 0.1162	770.4	1.4443
308.15 K, x2 = 0.1687	771.9	1.4514
308.15 K, x2 = 0.2383	774.4	1.4589
308.15 K, x2 = 0.3091	777.3	1.4658
308.15 K, x2 = 0.4032	781.9	1.4733
308.15 K, x2 = 0.5043	788.1	1.4803
308.15 K, x2 = 0.6492	800.6	1.4868
308.15 K, x2 = 0.8251	824.9	1.4936
313.15 K, x2 = 0	763.6	–
313.15 K, x2 = 0.0702	765.5	1.4366
313.15 K, x2 = 0.1162	766.8	1.4438
313.15 K, x2 = 0.1687	768.4	1.4508
313.15 K, x2 = 0.2383	770.9	1.4581
313.15 K, x2 = 0.3091	773.8	1.465
313.15 K, x2 = 0.4032	778.4	1.4726
313.15 K, x2 = 0.5043	784.5	1.4795
313.15 K, x2 = 0.6492	797	1.486
313.15 K, x2 = 0.8251	821.1	1.4928
318.15 K, x2 = 0	759.8	–
318.15 K, x2 = 0.0702	761.8	1.4358
318.15 K, x2 = 0.1162	763.1	1.4431
318.15 K, x2 = 0.1687	764.8	1.45
318.15 K, x2 = 0.2383	767.2	1.4575
318.15 K, x2 = 0.3091	770.1	1.4643
318.15 K, x2 = 0.4032	774.7	1.4718
318.15 K, x2 = 0.5043	780.8	1.4788
318.15 K, x2 = 0.6492	793.3	1.4853
318.15 K, x2 = 0.8251	817.2	1.492

CCN(CC)CC [triethylamine] + c1ccccc1
Details	mass density, [1] [kg/m3]	refractive index, [2]
278.15 K, x2 = 0.1145	751.3	1.4149
278.15 K, x2 = 0.2043	759.4	1.4197
278.15 K, x2 = 0.3005	769.2	1.4261
278.15 K, x2 = 0.4005	780.6	1.4336
278.15 K, x2 = 0.5023	793.6	1.4421
278.15 K, x2 = 0.6037	808.1	1.4518
278.15 K, x2 = 0.7035	824.2	1.4625
278.15 K, x2 = 0.8079	843.9	1.4756
278.15 K, x2 = 0.9069	866.2	1.4902
283.15 K, x2 = 0.1145	747.4	1.4133
283.15 K, x2 = 0.2043	755.5	1.418
283.15 K, x2 = 0.3005	765.4	1.4243
283.15 K, x2 = 0.4005	776.9	1.4318
283.15 K, x2 = 0.5023	790	1.4404
283.15 K, x2 = 0.6037	804.6	1.4501
283.15 K, x2 = 0.7035	821	1.4609
283.15 K, x2 = 0.8079	841	1.474
283.15 K, x2 = 0.9069	863.5	1.4886
288.15 K, x2 = 0.1145	743.3	1.4113
288.15 K, x2 = 0.2043	751.5	1.416
288.15 K, x2 = 0.3005	761.4	1.4224
288.15 K, x2 = 0.4005	772.9	1.43
288.15 K, x2 = 0.5023	786	1.4387
288.15 K, x2 = 0.6037	800.7	1.4485
288.15 K, x2 = 0.7035	817.2	1.4594
288.15 K, x2 = 0.8079	837.4	1.4727
288.15 K, x2 = 0.9069	859.9	1.4872
293.15 K, x2 = 0.1145	738.4	1.409
293.15 K, x2 = 0.2043	746.8	1.4137
293.15 K, x2 = 0.3005	756.7	1.4201
293.15 K, x2 = 0.4005	768.2	1.4278
293.15 K, x2 = 0.5023	781.4	1.4366
293.15 K, x2 = 0.6037	796.1	1.4465
293.15 K, x2 = 0.7035	812.7	1.4576
293.15 K, x2 = 0.8079	833.1	1.471
293.15 K, x2 = 0.9069	855.6	1.4856
298.15 K, x2 = 0	723.4	–
298.15 K, x2 = 0.1145	733.4	1.4062
298.15 K, x2 = 0.2043	741.8	1.411
298.15 K, x2 = 0.3005	751.7	1.4173
298.15 K, x2 = 0.4005	763.1	1.425
298.15 K, x2 = 0.5023	776.1	1.4338
298.15 K, x2 = 0.6037	790.7	1.4438
298.15 K, x2 = 0.7035	807.2	1.4549
298.15 K, x2 = 0.8079	827.4	1.4683
298.15 K, x2 = 0.9069	849.6	1.4829
303.15 K, x2 = 0	717.9	–
303.15 K, x2 = 0.1145	728.2	1.4038
303.15 K, x2 = 0.2043	737	1.4088
303.15 K, x2 = 0.3005	747.1	1.4151
303.15 K, x2 = 0.4005	758.7	1.4228
303.15 K, x2 = 0.5023	772	1.4317
303.15 K, x2 = 0.6037	786.8	1.4418
303.15 K, x2 = 0.7035	803.6	1.4531
303.15 K, x2 = 0.8079	824.2	1.4666
303.15 K, x2 = 0.9069	846.8	1.4812
308.15 K, x2 = 0	712.9	–
308.15 K, x2 = 0.1145	723.4	1.4009
308.15 K, x2 = 0.2043	732.3	1.4061
308.15 K, x2 = 0.3005	742.4	1.4125
308.15 K, x2 = 0.4005	754	1.4203
308.15 K, x2 = 0.5023	767.3	1.4293
308.15 K, x2 = 0.6037	782.1	1.4395
308.15 K, x2 = 0.7035	799	1.451
308.15 K, x2 = 0.8079	819.6	1.4647
308.15 K, x2 = 0.9069	842.1	1.4795
313.15 K, x2 = 0	708.3	–
313.15 K, x2 = 0.1145	718.9	1.3988
313.15 K, x2 = 0.2043	727.9	1.4043
313.15 K, x2 = 0.3005	738.1	1.4107
313.15 K, x2 = 0.4005	749.7	1.4185
313.15 K, x2 = 0.5023	762.9	1.4275
313.15 K, x2 = 0.6037	777.8	1.4378
313.15 K, x2 = 0.7035	794.7	1.4495
313.15 K, x2 = 0.8079	815.4	1.4632
313.15 K, x2 = 0.9069	837.8	1.4779
318.15 K, x2 = 0	701.6	–
318.15 K, x2 = 0.1145	712.6	1.3961
318.15 K, x2 = 0.2043	721.7	1.4017
318.15 K, x2 = 0.3005	732.1	1.4082
318.15 K, x2 = 0.4005	743.9	1.4161
318.15 K, x2 = 0.5023	757.2	1.4252
318.15 K, x2 = 0.6037	772.3	1.4356
318.15 K, x2 = 0.7035	789.5	1.4474
318.15 K, x2 = 0.8079	810.5	1.4613
318.15 K, x2 = 0.9069	833.1	1.4759
